How the values were obtained:
Assay type in all cases: in vivo
[1] = system: cucumber plants; assay: toxicity to cucumber plants (Example 3)
[2] = system: potato leaves; assay: toxicity to potato leaves (Example 2)
[3] = system: cucumber plants; assay: toxicity to cucumber plants (Example 5)
From the text: Controlling the Gray mold disease caused by Botrytis cinerea in cucumber plants utilizing 0.1% chitosan and metal complexes.

Measured: toxicity to the plant

O=[N+]([O-])[O-].O=[N+]([O-])[O-].[Cu+2] [CuNO3]
toxic: [1]; 25 ppm metals | [1]; 50 ppm metals | [1]; 75 ppm metals | [2]; 25 ppm metals | [2]; 50 ppm metals | [2]; 75 ppm metals | [3]; 35 ppm metals | [3]; 50 ppm metals

— patent US6589942B1, “Chitosan metal complexes and method for controlling microbial growth on plants using same” (priority 1998, dated 2003)
